The results in this text go back to US20230149364A1, “METHODS OF TREATING VIRAL INFECTIONS” (EAGLE PHARMACEUTICALS, INC., priority 2020, published 2023).

One series relates to SARS-CoV-2. Kind of series: Virus neutralization (VN) assay, scoring of SARS-CoV-2 cytopathic effects (CPE) in Vero E6 cells. Format: cell-based. For orientation: Protection from cytopathic effect is a common read-out in antiviral testing.

Each structure is given as a SMILES string. In brackets after ≈: the same amount, converted by molar mass. Several values for one entry are separate records, joined by “and”; a condition that tells them apart may be missing. Equal entries are not always repeated. Where two headings read alike, the source gives them in different places.

Regarding `O=C1CN(/N=C/c2ccc(-c3ccc([N+](=O)[O-])cc3)o2)C(O)=N1` [dantrolene], in the series on SARS-CoV-2, the CPE result was “no CPE was observed”; the “Day 2 Read (CPE)” value is 3/3 wells had No CPE and 3/3 walls n34 > 90% CPE; the “Day 4 Read (CPE)” value was 3/3 wells had No CPE and 2/3 wells had > J0% CPE and 1/3 wells had > 90% CPE and 3/3 wells had > 90% CPE; the “Day 6 Read (CPE)” value was 3/3 wells had No CPE and 2/3 wells had > 90% CPE and 1/3 wells had > 90% CPE and 3/3 wells had > 90% CPE. The “Day 2 Read (CPE)” value in the series with SARS-CoV-2 (50 μM dantrolene, Day 2) was 3/3 wells had sparse. Also, the “Day 4 Read (CPE)” value in the series on SARS-CoV-2 (50 μM dantrolene, Day 4) is given as 3/3 wells had sparse. For the same compound, in the series on SARS-CoV-2 (50 μM dantrolene, Day 6, cell wraps on: 'confluency but greater than Day 4'), the “Day 6 Read (CPE)” value is on record as 3/3 wells had sparse. In addition, the “cytopathic effects (virus growth)” value in the series with SARS-CoV-2 (20 and 40 μM dantrolene, all timepoints) is “No cytopathic effects”. For the same compound, the MIC in the series with SARS-CoV-2 (Severe acute respiratory syndrome coronavirus 2, 144 h, SARS-CoV-2 in Vero E6 cells, no CPE across all time points (6 days), read-out: minimum inhibitory concentration) was determined as 20 µM (≈ 6.29 µg/mL). Also, the anti-viral activity result in the series with SARS-CoV-2 (lower concentrations of 10 and 5 μM) is given as “also showed anti-viral activity”. Further, in the series with Vero E6 cells (50 μM dilution, Day 6 post-infection, decreased compared to lower dilutions), the “cell growth at Day 6” value is given as “rebound cell growth”. The “cytopathic effects at highest concentrations” value with Vero E6 cells (50 and 100 μM, Days 2 and 4, both infected cells and uninfected controls) was “showed cytopathic effects”. Moreover, the Cytotoxic effects result with Vero E6 cells (African green monkey) is on record as “Cytotoxic effects were only observed at the 2 highest dantrolene concentrations”. Moreover, the “cell viability of uninfected Vero E6 cells” value with Vero E6 cells (lower dilutions (<50 μM dantrolene), uninfected) is “good cell viability”.
